Assay results published in PubChem BioAssay AID1963423 (Molecular Pharmacology Branch, DTP, NCI, 2024).
pIC50: −log10 of the molar value.

Tested on: 439559-082-T-J2-PDC complex spheroid growth
Experiment: Anticancer human tumor 439559-082-T-J2-PDC patient-derived colon adenocarcinoma cell line growth inhibition [Asc]
Conditions: for pIC50: curve of first compound; for viability, T/C: stronger effect = lower value; active means viability on the fitted dose curve at most 10% of control; inactive means the rest
In short: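 Concentration series start at each agent's clinical Cmax, or at 10 microM when none is established, and drop in half-log steps; agents are applied alone or together to complex spheroids built with HUVEC and hMSC.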

[1] = second compound 0.1 µM, first compound 0.0316 µM
[2] = second compound 0.1 µM, first compound 0.1 µM
[3] = second compound 0.316 µM, first compound 0.0316 µM
[4] = second compound 0.316 µM, first compound 0.1 µM
[5] = second compound 1 µM, first compound 0.0316 µM
[6] = second compound 1 µM, first compound 0.1 µM
[7] = second compound 3.16 µM, first compound 0.0316 µM
[8] = second compound 3.16 µM, first compound 0.1 µM
[9] = second compound 10 µM, first compound 0.0316 µM
[10] = second compound 10 µM, first compound 0.1 µM
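Further: spheroids exposed to agents for 7 days starting day 3 after seeding.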
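Wherever viability, T/C is given: percent of DMSO vehicle control viability with 100% = vehicle.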

Cc1nc(N2CCC3(CC2)COC(C)C3N)c(CO)nc1Sc1ccnc(N)c1Cl (configuration not stated) + CNC(C)C(=O)NC1CN(S(=O)(=O)c2cccc(S(=O)(=O)N3CCC4CCC(C(=O)NC(c5ccccc5)c5ccccc5)N4C(=O)C(NC(=O)C(C)NC)C3)c2)CCC2CCC(C(=O)NC(c3ccccc3)c3ccccc3)N2C1=O
< 5.52: pIC50 (second compound 0.00316 µM) | pIC50 (second compound 0.01 µM) | pIC50 (second compound 0.0316 µM) | pIC50 (second compound 0.1 µM) | pIC50 (second compound 0.316 µM)
5.64: pIC50 (second compound 1 µM)
inactive: viability, T/C (second compound 0.00316 µM, first compound 0.00949 µM) 98.2% | viability, T/C (second compound 0.00316 µM, first compound 0.03 µM) 91.5% | viability, T/C (second compound 0.00316 µM, first compound 0.0949 µM) 89.7% | viability, T/C (second compound 0.00316 µM, first compound 0.3 µM) 94% | viability, T/C (second compound 0.00316 µM, first compound 0.949 µM) 95.4% | viability, T/C (second compound 0.00316 µM, first compound 3 µM) 71.5% | viability, T/C (second compound 0.01 µM, first compound 0.00949 µM) 98.4% | viability, T/C (second compound 0.01 µM, first compound 0.03 µM) 104% | viability, T/C (second compound 0.01 µM, first compound 0.0949 µM) 95.3% | viability, T/C (second compound 0.01 µM, first compound 0.3 µM) 83% | viability, T/C (second compound 0.01 µM, first compound 0.949 µM) 87.3% | viability, T/C (second compound 0.01 µM, first compound 3 µM) 73.3% | viability, T/C (second compound 0.0316 µM, first compound 0.00949 µM) 104% | viability, T/C (second compound 0.0316 µM, first compound 0.03 µM) 98.8% | viability, T/C (second compound 0.0316 µM, first compound 0.0949 µM) 89.4% | viability, T/C (second compound 0.0316 µM, first compound 0.3 µM) 97.2% | viability, T/C (second compound 0.0316 µM, first compound 0.949 µM) 75.8% | viability, T/C (second compound 0.0316 µM, first compound 3 µM) 69.5% | viability, T/C (second compound 0.1 µM, first compound 0.00949 µM) 93.7% | viability, T/C (second compound 0.1 µM, first compound 0.03 µM) 96.7% | viability, T/C (second compound 0.1 µM, first compound 0.0949 µM) 95.5% | viability, T/C (second compound 0.1 µM, first compound 0.3 µM) 84.2% | viability, T/C (second compound 0.1 µM, first compound 0.949 µM) 81.3% | viability, T/C (second compound 0.1 µM, first compound 3 µM) 64.8% | viability, T/C (second compound 0.316 µM, first compound 0.00949 µM) 94.4% | viability, T/C (second compound 0.316 µM, first compound 0.03 µM) 88.1% | viability, T/C (second compound 0.316 µM, first compound 0.0949 µM) 79% | viability, T/C (second compound 0.316 µM, first compound 0.3 µM) 72.1% | viability, T/C (second compound 0.316 µM, first compound 0.949 µM) 67% | viability, T/C (second compound 0.316 µM, first compound 3 µM) 59.9% | viability, T/C (second compound 1 µM, first compound 0.00949 µM) 72.9% | viability, T/C (second compound 1 µM, first compound 0.03 µM) 76.8% | viability, T/C (second compound 1 µM, first compound 0.0949 µM) 69.3% | viability, T/C (second compound 1 µM, first compound 0.3 µM) 62.9% | viability, T/C (second compound 1 µM, first compound 0.949 µM) 66.6% | viability, T/C (second compound 1 µM, first compound 3 µM) 45%

Cn1ncnc1[C@H]1c2n[nH]c(=O)c3cc(F)cc(c23)N[C@@H]1c1ccc(F)cc1 + Cc1c(S(C)(=O)=O)c(-c2cc(F)cc(N3CCN(c4ccc(NS(=O)(=O)c5ccc(NC(CCN6CCC(C(=O)OCCCP(=O)(O)O)CC6)CSc6ccccc6)c(S(=O)(=O)C(F)(F)F)c5)cc4)CC3)c2)c(-c2ccc(Cl)cc2)n1C(C)C
inactive: viability, T/C (second compound 0.1 µM, first compound 0.000316 µM) 102% | viability, T/C (second compound 0.1 µM, first compound 0.001 µM) 106% | viability, T/C (second compound 0.1 µM, first compound 0.00316 µM) 103% | viability, T/C (second compound 0.1 µM, first compound 0.01 µM) 85.5% | viability, T/C [1] 98% | viability, T/C [2] 87.7% | viability, T/C (second compound 0.316 µM, first compound 0.000316 µM) 100% | viability, T/C (second compound 0.316 µM, first compound 0.001 µM) 98.8% | viability, T/C (second compound 0.316 µM, first compound 0.00316 µM) 102% | viability, T/C (second compound 0.316 µM, first compound 0.01 µM) 90.2% | viability, T/C [3] 90.4% | viability, T/C [4] 84.8% | viability, T/C (second compound 1 µM, first compound 0.000316 µM) 91% | viability, T/C (second compound 1 µM, first compound 0.001 µM) 93.3% | viability, T/C (second compound 1 µM, first compound 0.00316 µM) 102% | viability, T/C (second compound 1 µM, first compound 0.01 µM) 83% | viability, T/C [5] 85.4% | viability, T/C [6] 81.1% | viability, T/C (second compound 3.16 µM, first compound 0.000316 µM) 85% | viability, T/C (second compound 3.16 µM, first compound 0.001 µM) 89.3% | viability, T/C (second compound 3.16 µM, first compound 0.00316 µM) 92.7% | viability, T/C (second compound 3.16 µM, first compound 0.01 µM) 81.3% | viability, T/C [7] 79.4% | viability, T/C [8] 76.3% | viability, T/C (second compound 10 µM, first compound 0.000316 µM) 72.7% | viability, T/C (second compound 10 µM, first compound 0.001 µM) 74% | viability, T/C (second compound 10 µM, first compound 0.00316 µM) 75% | viability, T/C (second compound 10 µM, first compound 0.01 µM) 76.8% | viability, T/C [9] 70.8% | viability, T/C [10] 66.5%
< 7.00: pIC50 (second compound 0.1 µM) | pIC50 (second compound 0.316 µM) | pIC50 (second compound 1 µM) | pIC50 (second compound 3.16 µM) | pIC50 (second compound 10 µM)

O=C(c1cc(Cc2n[nH]c(=O)c3ccccc23)ccc1F)N1CCN(C(=O)C2CC2)CC1 + Cc1c(S(C)(=O)=O)c(-c2cc(F)cc(N3CCN(c4ccc(NS(=O)(=O)c5ccc(NC(CCN6CCC(C(=O)OCCCP(=O)(O)O)CC6)CSc6ccccc6)c(S(=O)(=O)C(F)(F)F)c5)cc4)CC3)c2)c(-c2ccc(Cl)cc2)n1C(C)C
inactive: viability, T/C [1] 101% | viability, T/C [2] 110% | viability, T/C (second compound 0.1 µM, first compound 0.316 µM) 98.4% | viability, T/C (second compound 0.1 µM, first compound 1 µM) 92.6% | viability, T/C (second compound 0.1 µM, first compound 3.16 µM) 98.1% | viability, T/C (second compound 0.1 µM, first compound 10 µM) 90.9% | viability, T/C [3] 86% | viability, T/C [4] 102% | viability, T/C (second compound 0.316 µM, first compound 0.316 µM) 109% | viability, T/C (second compound 0.316 µM, first compound 1 µM) 92.5% | viability, T/C (second compound 0.316 µM, first compound 3.16 µM) 99% | viability, T/C (second compound 0.316 µM, first compound 10 µM) 90.3% | viability, T/C [5] 91.3% | viability, T/C [6] 101% | viability, T/C (second compound 1 µM, first compound 0.316 µM) 105% | viability, T/C (second compound 1 µM, first compound 1 µM) 93% | viability, T/C (second compound 1 µM, first compound 3.16 µM) 92.4% | viability, T/C (second compound 1 µM, first compound 10 µM) 92.8% | viability, T/C [7] 93% | viability, T/C [8] 101% | viability, T/C (second compound 3.16 µM, first compound 0.316 µM) 96.1% | viability, T/C (second compound 3.16 µM, first compound 1 µM) 80% | viability, T/C (second compound 3.16 µM, first compound 3.16 µM) 98.4% | viability, T/C (second compound 3.16 µM, first compound 10 µM) 86.1% | viability, T/C [9] 71.6% | viability, T/C [10] 73.6% | viability, T/C (second compound 10 µM, first compound 0.316 µM) 92.2% | viability, T/C (second compound 10 µM, first compound 1 µM) 84.1% | viability, T/C (second compound 10 µM, first compound 3.16 µM) 76.5% | viability, T/C (second compound 10 µM, first compound 10 µM) 72.7%
< 5.00: pIC50 (second compound 0.1 µM) | pIC50 (second compound 0.316 µM) | pIC50 (second compound 1 µM) | pIC50 (second compound 3.16 µM) | pIC50 (second compound 10 µM)
